According to ChEMBL document CHEMBL5604062, “ASAP - ZIKV NS2B-NS3 protease fluorescence dose response” (2024):
Where “and” joins values, the source holds several entries; their conditions need not be identical. Equal entries are not always repeated.

Target: Nonstructural protein 3 (Zika virus, UniProt A0A024AXB9)
Experiment: Functional biochemical assay to identify treatments for viral infectious disease that targets Zika NS2B-NS3 protease. Utilizing a direct enzyme activity measurement method, reading the fluorescence intensity is used to characterize the relative potency of inhibitors as IC50.
Design: species or system PRVABC59

Chain of Nonstructural protein 3 (A0A024AXB9 whole entry): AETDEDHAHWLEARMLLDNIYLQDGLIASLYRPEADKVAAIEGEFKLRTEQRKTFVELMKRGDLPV

IC50	SMILES
11.8 µM	O=C(Nc1cc(Cl)cc(-c2ccc3cc(C(=O)O)[nH]c3c2)c1)OCc1ccccc1
> 99.5 µM	OC[C@H]1CCN(c2ccnc(C(F)F)c2)C1
> 99.5 µM	CN(C(=O)[C@@H](NC(=O)OCc1ccccc1)c1ccc(OCc2ccccc2)cc1)c1cccc(CN)c1
> 99.5 µM	NCc1cccc(NC(=O)[C@H](NC(=O)OCc2ccccc2)C2CCN(C(=O)Cn3ccnc3)CC2)c1
> 25 µM	Cc1ccc(NC(=O)c2cc(C3CC3)n(C)c2C)cc1-c1cccnc1
> 99.5 µM	NCc1cccc(NC(=O)[C@@H](N)c2ccc(OCc3ccccc3)cc2)c1
> 25 µM	O=C1OCc2ccc(NC(=O)[C@H]3CCNC3)cc21
53 nM (2×) and 32 nM	CCc1cccc(-c2nc3c(C(=O)Nc4ccc5c(c4)CNC5)cc(F)cc3[nH]2)c1
> 99.5 µM	NCCNC(=O)c1cc(Cl)ccc1NS(=O)(=O)c1ccc(Oc2ccccc2Cl)cc1
> 99.5 µM	O=C(Nc1cc(Cl)cc(C(=O)N[C@]2(c3nnn[nH]3)CCOC2)c1)OCc1ccccc1
0.994 µM	C=CC[C@H]1NCc2cc(N[C@H](C(=O)NC(C)C)c3cc(Cl)cc4[nH]ncc34)ccc21
5.12 µM	NCc1ccc([C@H]2C[C@@H]2c2cc(Cl)cc(NC(=O)OCc3ccccc3)c2)cc1
> 99.5 µM	CCc1ccc([C@@H](NC(=O)OCc2ccccc2)C(=O)Nc2cccc(CN)c2)cc1
54.7 µM	NCc1cccc(NC(=O)[C@@H]2[C@@H]3CCCCC[C@@H]3[C@@H]2NC(=O)OCc2ccccc2)c1
> 25 µM	O=C1OCc2ccc(NC(=O)[C@H]3CNC4(CCCC4)C3)cc21
> 99.5 µM	CC(C)c1nc2c(C(=O)Nc3cccc(-c4nnn[nH]4)c3)cccc2[nH]1
10.6 µM	O=C(NCC(F)(F)F)c1cc(Cl)c(F)cc1NS(=O)(=O)c1ccc(Oc2ccccc2Cl)cc1
> 99.5 µM	NCc1cccc(NC(=O)[C@H]2[C@H]3CCC[C@H]3[C@@H]2NC(=O)OCc2ccccc2)c1
25.1 µM	C[C@@H](Oc1ccc(S(=O)(=O)Nc2ccc(Cl)cc2C(=O)O)cc1)c1ccccc1F
21.2 µM	O=C(Nc1cc(Cl)cc(C(=O)Nc2ccc([C@]34CNC[C@H]3C4)cc2)c1)OCc1ccccc1
> 99.5 µM	Cc1c(C(=O)Nc2cccc([C@H]3CCNC3)c2)cc(C2CC2)n1C
23.8 µM	CN(C)Cc1cccc(C(=O)Nc2cccc(CN)c2)c1
6.02 µM	O=C(Nc1cc(Cl)cc(C(=O)Nc2ccc(C3CCNCC3)cc2)c1)OCc1ccccc1
> 99.5 µM	c1ccc2c(CN3CCC(n4cccn4)CC3)c[nH]c2c1
60.8 µM	CS(=O)(=O)c1cncc(-c2cccc([C@H](NC(=O)OCc3ccccc3)C(=O)Nc3cccc(CN)c3)c2)c1

IC50	SMILES
> 99.5 µM	c1ccc2c(CN3CC(c4cscn4)C3)c[nH]c2c1
> 99.5 µM	NCc1ccc(Oc2ccc(S(=O)(=O)Nc3ccc(Cl)cc3C(=O)NCC(F)(F)F)cc2)cc1
> 99.5 µM	CC(C)Nc1nc2ccc(C(=O)Nc3ccc4cn[nH]c4n3)cc2[nH]1
> 99.5 µM	c1csc(CSc2nnc(Cn3cncn3)o2)c1
> 99.5 µM	CCn1cnnc1COc1ccc(S(=O)(=O)Nc2ccc(Cl)cc2C(=O)O)cc1
0.047 µM and 0.032 µM	CSc1cc2c(cc1NC(=O)c1cc(F)cc3[nH]ncc13)CNC2
> 99.5 µM	CCCn1nc(C)c2c(C(=O)Nc3cccc(CN)c3)cc(C)nc21
> 25 µM	Cc1c(C(=O)Nc2ccc3c(c2)CCCC(=O)N3)cc(C2CC2)n1C
> 99.5 µM	Fc1cccc(F)c1-c1n[nH]cc1CN1CCC(c2nc3ccccc3s2)CC1
> 99.5 µM	Cn1nc2c(c1NC(=O)[C@@H](NC(=O)OCc1ccccc1)c1ccc(OCc3ccccc3)cc1)CNC2
> 99.5 µM	NCC1(c2ccc(C(=O)N3CCc4scc(Br)c4C3)cc2)CC1
> 25 µM	CCOc1cccc(-c2cccc(NC(=O)c3cc(C4CC4)n(C)c3C)n2)c1
> 99.5 µM	NCc1cccc(NC(=O)c2cc(Cl)ccc2NS(=O)(=O)c2ccccc2)c1
4.37 µM	CCCC(=O)Nc1cc(Cl)cc(C(=O)Nc2cccc(CN)c2)c1
2.87 µM	O=C(Nc1ccc2c(c1)CNC2)c1cccc2c1OCO2
25.6 µM	CCCC[C@@H](NC(=O)OC(C)(C)C)C(=O)N[C@@H](C(=O)NCc1ccc(CN)cc1)c1ccc(OCc2ccccc2)cc1
> 99.5 µM	O=C(Cn1ccnc(N2CC[C@H](CO)C2)c1=O)NCc1nccs1
> 99.5 µM	Cn1cc([C@@H]2C[C@H](C(=O)Nc3cccc(CN)c3)CC(=O)N2)cn1
> 99.5 µM	Clc1ccc2[nH]cc(Cc3cccc(-c4nn[nH]n4)c3)c2c1
> 99.5 µM	Cn1ncc(CN2CCC([C@H](NC(=O)OCc3ccccc3)C(=O)Nc3cccc(CN)c3)CC2)n1
> 99.5 µM	CCn1c(=O)c(N2CC[C@H](CO)C2)nc2ccc(C(=O)NS(C)(=O)=O)cc21
> 99.5 µM	NCc1ccc(C(=O)O)c(NC(=O)c2cc(Cl)cc(NC(=O)OCc3ccccc3)c2)c1
> 99.5 µM	Cn1nc(C(=O)Nc2cccc(CN)c2)c2c1CCS(=O)(=O)C2
31.9 µM	O=C(O)c1cc(F)c(F)cc1NS(=O)(=O)c1ccc(Oc2ccccc2Cl)cc1
24.7 µM	O=Cc1ccc(N2CCC(C(=O)Nc3cccc(Br)n3)CC2)cc1

IC50	SMILES
> 99.5 µM	O=C(NC1CCCCC1)c1cc(Cl)ccc1NS(=O)(=O)c1ccc(Oc2ccccc2Cl)cc1
> 99.5 µM	c1ccc(COc2cccc3[nH]cc(CN4CCC(c5cscn5)CC4)c23)cc1
6.17 µM	CCNC(=O)Nc1cc(Cl)cc(C(=O)Nc2cc(CCCN)ccc2F)c1
62.1 µM and 77.7 µM and 77.6 µM	O=C(Nc1cc(Cl)cc(C(=O)Nc2cccc([C@H]3C[C@H]3C(=O)O)c2)c1)OCc1ccccc1
> 25 µM	Cc1c(C(=O)Nc2cc(CN(C)C)ccn2)cc(C2CC2)n1C
> 99.5 µM	O=c1c2ccccc2nnn1CSc1nnc(-c2ccccc2)o1
> 25 µM	O=C(Nc1ccc2c(c1)CNC2)c1ccc2ncccc2c1
> 25 µM	O=C1Cc2c(cccc2C(=O)NC2CCC3(CC2)COC3)N1
0.129 µM	O=C(NCC(F)F)[C@H](Nc1ccc2c(c1)CNC2)c1cc(Cl)ccc1OC[C@H]1CCCO1
> 99.5 µM	Cc1[nH]c2ccc(Br)cc2c1CC(=O)Nc1cccc(CN)c1
> 99.5 µM	N#Cc1cccc(C[C@H](O)c2cc(Cl)cc(NC(=O)OCc3ccccc3)c2)c1
0.056 µM and 0.043 µM	O=C(Nc1ccc2c(c1)CNC2)c1cc(F)cc(-c2cnc(C3CC3)s2)c1
> 99.5 µM	Cc1cc(CNC(=O)[C@@H](NC(=O)OCc2ccccc2)c2ccc(OCc3ccccc3)cc2)cc(C)n1
> 99.5 µM	CNC(=O)[C@H](Nc1cc(CNC(=O)OC(C)(C)C)cc(C(=O)O)c1)c1cc(Cl)cc(C2CC2)c1
> 25 µM	Cc1[nH]nc2c1CC[C@H](NC(=O)c1cccc3c1CC(=O)N3)C2
> 25 µM	O=C(Nc1cc(-c2cccnc2)ccn1)c1cc(C2CC2)[nH]c(=O)c1
0.06 µM and 0.042 µM	CCOCCNC(=O)[C@H](Nc1ccc2c(c1)CNC2)c1cc(Cl)cc2[nH]ncc12
> 99.5 µM	Cn1ccc(CS(=O)(=O)N[C@@H](C(=O)Nc2cccc(CN)c2)c2ccc(OCc3ccccc3)cc2)n1
> 99.5 µM	Clc1cc(/C=C/c2cccc(-c3nn[nH]n3)c2)c2cn[nH]c2c1
> 99.5 µM	NS(=O)(=O)c1ccccc1N1CCN(Cc2c[nH]c3ccccc23)CC1
20.8 µM	Cn1ncc(C(=O)Nc2cc(-c3cccnc3)ccn2)c1C1CC1
> 25 µM	COCCNC(=O)[C@H](Nc1cccc([C@H]2CCOC2)c1)c1cc(Cl)cc2[nH]ncc12
32 µM	O=S(=O)(Nc1ccc(Cl)cc1CN(CC1CC1)CC1CC1)c1ccc(Oc2ccccc2Cl)cc1
> 99.5 µM	O=S(=O)(Nc1cccc(-c2nnn[nH]2)c1)c1cc(Cl)cc(-c2ccccc2)c1
> 99.5 µM	O=C(Nc1cc(Cl)cc([C@H]2Nc3ccc(-c4nn[nH]n4)cc3[C@H]3OCCC[C@@H]23)c1)OCc1ccccc1

IC50	SMILES
14.5 µM	NCc1cccc(NC(=O)CN(C(=O)OCc2ccccc2)c2ccc(OCc3ccccc3)cc2)c1
> 99.5 µM	N#Cc1csc(CN2CCC([C@H](NC(=O)OCc3ccccc3)C(=O)Nc3cccc(CN)c3)CC2)c1
16 nM (2×) and < 12 nM	N#Cc1cc2c(cc1NC(=O)c1cc(F)cc3[nH]ncc13)CNC2
92.6 µM	Cc1c(C(=O)Nc2ccc(CCN)cc2)cc(C2CC2)n1C
0.494 µM	N#Cc1c[nH]c2ccc(C(=O)Nc3ccc4c(c3)CNC4)cc12
21.1 µM	O=C(Nc1ccc2c(c1)CNC2)c1ccnc2[nH]ccc12
> 99.5 µM	CNC(=O)[C@H](Nc1cc(Cl)cc(C2CC2)c1)c1ccc(-c2nn[nH]n2)cc1
14.6 µM	NCc1cc(C(=O)N2CCNC(=O)C2)cc([C@@H]2C[C@H]2c2cc(Cl)cc(NC(=O)OCc3ccccc3)c2)c1
> 99.5 µM	CCCC[C@H](NC(=O)OC(C)(C)C)C(=O)N[C@H](C(=O)NCc1ccc(C(N)=O)cc1)c1ccc(OCc2ccccc2)cc1
> 25 µM	O=C(Nc1ccc2c(c1)CNC2)N1CCC[C@@H]1COCc1ccccc1
34.3 µM	CC(C)CNC(=O)c1cc(Cl)ccc1NS(=O)(=O)c1ccc(Oc2ccccc2Cl)cc1
6.83 µM	Cc1cc(C(=O)N[C@H](CC(=O)Nc2cccc(CN)c2)c2ccc(OCc3ccccc3)c(Br)c2)sn1
57.4 µM	N[C@H](CO)c1cccc(NC(=O)c2cc(Cl)cc(NC(=O)OCc3ccccc3)c2)c1
31 nM (2×) and 18 nM	Cc1ccccc1-c1nc2c(C(=O)Nc3ccc4c(c3)CNC4)cc(F)cc2[nH]1
> 99.5 µM	CC[C@H](Cc1nnn[nH]1)c1ccc(NC(=O)c2cc(Cl)cc(C3CC3)c2)cc1
39.9 µM	Cc1c(C(=O)Nc2cc(CCCN)ccn2)cc(C2CC2)n1C
34.4 µM	c1ccc(-c2[nH]c3ccccc3c2CN2CCC(c3cscn3)CC2)cc1
> 99.5 µM	O=C(/C=C/c1ccc(N2CCNCC2)cc1)C(=O)N1CCOCC1
38.9 µM	NCc1cccc(NC(=O)[C@@H](NC(=O)OCc2ccccc2)c2ccc(-c3ccncc3F)cc2)c1
> 99.5 µM	O=C(O)c1cc(Cc2c[nH]c3ccc(Cl)cc23)cc(C2CC2)n1
> 99.5 µM	NCc1cc(Cl)cc(-c2ccc3[nH]c(C(=O)O)cc3c2)c1
5.03 µM	O=C(Nc1ccc2c(c1)CNC2)c1cc(Cl)ccc1OC1CCCC1

SMILES	IC50
Cn1cnc2c1CN(Cc1ccc3c(c1)CCNCC3)CC2	> 99.5 µM
CN(c1ncnc(-c2ccsc2C=O)n1)C1CCNCC1	98.4 µM
C[C@H]1CN(C(=O)Cc2ccc(C=O)[nH]2)CCN1C1CCCC1	> 99.5 µM
